Source: US8993542B2, “Methods of treating viral infections” (priority 2008, dated 2015)

Columns and labels:
HIV = test: microbe, parasite or virus in culture; format: cell-based
HIV-1IIIB = test: Two-drug combination antiviral assay in CEM cells (CPE), MacSynergy II; format: cell-based; details: for Antagonism Volume, Result 1 / Antagonism Volume, Result 2 / Antagonism Volume, Result 3 / Mean Antagonism Volume (n = 3) / Mean Synergy Volume (n = 3) / Synergy Volume, Result 1 / Synergy Volume, Result 2 / Synergy Volume, Result 3: in combination with CMX157, CEM-SS cells, 95% confidence; for Interpretation of Antiviral Results (MacSynergy): two-drug combination (with CMX157; control d4T/RBV), CEM-SS cells

## Nc1nc(NC2CC2)c2ncn([C@H]3C=C[C@@H](CO)C3)c2n1 [ABC, abacavir]
HIV; Human immunodeficiency virus 1, PANEL 1, WT
  IC50: 1.52 µM
HIV; Human immunodeficiency virus 1, PANEL 2, WT
  IC50: 1.67 µM
HIV; Human immunodeficiency virus 1, PANEL 3, 6 TAMs, no 184
  IC50: 7.87 µM
HIV; Human immunodeficiency virus 1, PANEL 6, 6 TAMs + 184
  IC50: 14 µM
HIV; Human immunodeficiency virus 1, PANEL 7, 184V
  IC50: 4.78 µM
HIV; Human immunodeficiency virus 1, PANEL 9, 69ins, no 184
  IC50: 32.6 µM
HIV; Human immunodeficiency virus 1, PANEL 12, 69ins + 184
  IC50: 46.5 µM
HIV; Human immunodeficiency virus 1, PANEL 14, 65R, no 184
  IC50: 5.69 µM
HIV; Human immunodeficiency virus 1, PANEL 15, 65R + 184V
  IC50: 11.8 µM
HIV; Human immunodeficiency virus 1, PANEL 17, L74V
  IC50: 3.36 µM
HIV; Human immunodeficiency virus 1, PANEL 19, L74V + M184V
  IC50: 9.24 µM
HIV; Human immunodeficiency virus 1, PANEL 26, 151M, no 184
  IC50: 34.3 µM
HIV; Human immunodeficiency virus 1, PANEL 28, 151M + 184
  IC50: > 52 µM
HIV; Human immunodeficiency virus 1, PANEL 29, L74V − SDM
  IC50: 3.29 µM
HIV; Human immunodeficiency virus 1, PANEL 30, M184V − SDM
  IC50: 4.68 µM
HIV; Human immunodeficiency virus 1, PANEL 31, K65R − SDM
  IC50: 4.56 µM
HIV; Human immunodeficiency virus 1, PANEL 33, T215Y
  IC50: 3.67 µM
HIV; Human immunodeficiency virus 1, PANEL 34, T215Y + M184V
  IC50: 7.61 µM
HIV; Human immunodeficiency virus 1, PANEL 35, M41L + T215Y
  IC50: 3.36 µM
HIV; Human immunodeficiency virus 1, PANEL 37, M41L + T215Y + M184V
  IC50: 9.6 µM
HIV; Human immunodeficiency virus 1, PANEL 38, M41L + L210W + T215Y
  IC50: 4.97 µM
HIV; Human immunodeficiency virus 1, PANEL 39, M41L + L210W + T215Y
  IC50: 4.19 µM
HIV; Human immunodeficiency virus 1, PANEL 40, M41L + L210W + T215Y + M184V
  IC50: 8.17 µM
HIV; Human immunodeficiency virus 1, PANEL 41, M41L + L210W + T215Y + M184V
  IC50: 8.92 µM
HIV; Human immunodeficiency virus 1, PANEL 42, D67N + K70R
  IC50: 2.48 µM
HIV; Human immunodeficiency virus 1, PANEL 44, D67N + K70R + T215F + K219E + M184V
  IC50: 7.73 µM
HIV; Human immunodeficiency virus 1, PANEL 45, L210W + T215Y
  IC50: 3.64 µM
HIV; Human immunodeficiency virus 1, PANEL 46, D67N + K70E
  IC50: 2.42 µM
HIV; Human immunodeficiency virus 1, PANEL 47, D67N + K70E + M184V
  IC50: 5.05 µM
HIV; Human immunodeficiency virus 1, PANEL 48, K70E + M184V
  IC50: 10.4 µM
HIV; PANEL 1, WT
  IC50 Fold Change: 0.86
HIV; PANEL 2, WT
  IC50 Fold Change: 0.94
HIV; PANEL 3, 6 TAMs, no 184
  IC50 Fold Change: 4.43
HIV; PANEL 6, 6 TAMs + 184
  IC50 Fold Change: 7.91
HIV; PANEL 7, 184V
  IC50 Fold Change: 2.69
HIV; PANEL 9, 69ins, no 184
  IC50 Fold Change: 18.00
HIV; PANEL 12, 69ins + 184
  IC50 Fold Change: 26.00
HIV; PANEL 14, 65R, no 184
  IC50 Fold Change: 3.20
HIV; PANEL 15, 65R + 184V
  IC50 Fold Change: 6.64
HIV; PANEL 17, L74V
  IC50 Fold Change: 1.89
HIV; PANEL 19, L74V + M184V
  IC50 Fold Change: 5.21
HIV; PANEL 26, 151M, no 184
  IC50 Fold Change: 19.00
HIV; PANEL 28, 151M + 184
  IC50 Fold Change: >29.2959
HIV; PANEL 29, L74V − SDM
  IC50 Fold Change: 1.85
HIV; PANEL 30, M184V − SDM
  IC50 Fold Change: 2.64
HIV; PANEL 31, K65R − SDM
  IC50 Fold Change: 2.57
HIV; PANEL 33, T215Y
  IC50 Fold Change: 2.06
HIV; PANEL 34, T215Y + M184V
  IC50 Fold Change: 4.29
HIV; PANEL 35, M41L + T215Y
  IC50 Fold Change: 1.89
HIV; PANEL 37, M41L + T215Y + M184V
  IC50 Fold Change: 5.41
HIV; PANEL 38, M41L + L210W + T215Y
  IC50 Fold Change: 2.80
HIV; PANEL 39, M41L + L210W + T215Y
  IC50 Fold Change: 2.36
HIV; PANEL 40, M41L + L210W + T215Y + M184V
  IC50 Fold Change: 4.60
HIV; PANEL 41, M41L + L210W + T215Y + M184V
  IC50 Fold Change: 5.02
HIV; PANEL 42, D67N + K70R
  IC50 Fold Change: 1.40
HIV; PANEL 44, D67N + K70R + T215F + K219E + M184V
  IC50 Fold Change: 4.36
HIV; PANEL 45, L210W + T215Y
  IC50 Fold Change: 2.05
HIV; PANEL 46, D67N + K70E
  IC50 Fold Change: 1.36
HIV; PANEL 47, D67N + K70E + M184V
  IC50 Fold Change: 2.85
HIV; PANEL 48, K70E + M184V
  IC50 Fold Change: 5.88
HIV-1IIIB
  Antagonism Volume, Result 1: −35.8 nM^2 %, μM^2 % or nMμM %
  Antagonism Volume, Result 2: −2.32 nM^2 %, μM^2 % or nMμM %
  Antagonism Volume, Result 3: −12.1 nM^2 %, μM^2 % or nMμM %
  Mean Antagonism Volume (n = 3): −16.7 nM^2 %, μM^2 % or nMμM %
  Mean Synergy Volume (n = 3): 14.9 nM^2 %, μM^2 % or nMμM %
  Synergy Volume, Result 1: 25.1 nM^2 %, μM^2 % or nMμM %
  Synergy Volume, Result 2: 0 nM^2 %, μM^2 % or nMμM %
  Synergy Volume, Result 3: 19.7 nM^2 %, μM^2 % or nMμM %

## Cc1nnc(C(=O)NC(C)(C)c2nc(C(=O)NCc3ccc(F)cc3)c(O)c(=O)n2C)o1 [Raltegravir (RAL), raltegravir]
HIV-1IIIB
  Antagonism Volume, Result 1: 0 nM^2 %, μM^2 % or nMμM %
  Antagonism Volume, Result 2: 0 nM^2 %, μM^2 % or nMμM %
  Antagonism Volume, Result 3: 0 nM^2 %, μM^2 % or nMμM %
  Mean Antagonism Volume (n = 3): 0 nM^2 %, μM^2 % or nMμM %
  Mean Synergy Volume (n = 3): 34.3 nM^2 %, μM^2 % or nMμM %
  Synergy Volume, Result 1: 18.4 nM^2 %, μM^2 % or nMμM %
  Synergy Volume, Result 2: 1.92 nM^2 %, μM^2 % or nMμM %
  Synergy Volume, Result 3: 82.6 nM^2 %, μM^2 % or nMμM %

## O=C1Nc2ccc(Cl)cc2C(C#CC2CC2)(C(F)(F)F)O1 (centres unmarked) [Efavirenz (EFV), 6-chloro-4-cyclopropylethynyl-4-trifluoromethyl-1,4-dihydro-2H3,1-benzoxazin-2-one]
HIV-1IIIB
  Antagonism Volume, Result 1: 0 nM^2 %, μM^2 % or nMμM %
  Antagonism Volume, Result 2: 0 nM^2 %, μM^2 % or nMμM %
  Antagonism Volume, Result 3: 0 nM^2 %, μM^2 % or nMμM %
  Mean Antagonism Volume (n = 3): 0 nM^2 %, μM^2 % or nMμM %
  Mean Synergy Volume (n = 3): 69.8 nM^2 %, μM^2 % or nMμM %
  Synergy Volume, Result 1: 85.7 nM^2 %, μM^2 % or nMμM %
  Synergy Volume, Result 2: 80.6 nM^2 %, μM^2 % or nMμM %
  Synergy Volume, Result 3: 43.2 nM^2 %, μM^2 % or nMμM %
  Interpretation of Antiviral Results (MacSynergy): slightly synergistic

## COC(=O)N[C@H](C(=O)N[C@@H](Cc1ccccc1)[C@@H](O)CN(Cc1ccc(-c2ccccn2)cc1)NC(=O)[C@@H](NC(=O)OC)C(C)(C)C)C(C)(C)C [Atazanavir (ATV), atazanavir]
HIV-1IIIB
  Interpretation of Antiviral Results (MacSynergy): slightly synergistic
